Target: NAT Noradrenergic Transporter (Rattus norvegicus, UniProt Q9WTR4)
Assay: Measurements of [3H]noradrenaline uptake into rat cortical synaptosomes
Type: biochemical
Procedure: Transporter Inhibition Assays
Measurements of [^3H]Noradrenaline Uptake into Rat Cortical Synaptosomes
The homogenate is centrifuged at 1000×g for 10 min at 4° C. The pellet is discarded and the supernatant is centrifuged at 40.000×g for 20 min. […] Pellet is suspended in 140 volumes of assaybuffer. Tissue is mixed with test compounds and after 10 min pre-incubation, 10 nM [^3H]-noradrenaline is added to a final volume of 0.2 ml and the mixture is incubated for 15 min at 37° C. After 15 min incubation, samples are filtered directly on Unifilter GF/C glass fiber filters (soaked for 30 min in 0.1% polyethylenimine) under vacuum and immediately washed with 1×0.2 mL assay buffer.
Non-specific uptake is determined using talsupram (10 μM final concentration). Duloxetine is included as reference in all experiments as dose-response curve.

Sequence of NAT Noradrenergic Transporter (Q9WTR4 6-550 limits assumed): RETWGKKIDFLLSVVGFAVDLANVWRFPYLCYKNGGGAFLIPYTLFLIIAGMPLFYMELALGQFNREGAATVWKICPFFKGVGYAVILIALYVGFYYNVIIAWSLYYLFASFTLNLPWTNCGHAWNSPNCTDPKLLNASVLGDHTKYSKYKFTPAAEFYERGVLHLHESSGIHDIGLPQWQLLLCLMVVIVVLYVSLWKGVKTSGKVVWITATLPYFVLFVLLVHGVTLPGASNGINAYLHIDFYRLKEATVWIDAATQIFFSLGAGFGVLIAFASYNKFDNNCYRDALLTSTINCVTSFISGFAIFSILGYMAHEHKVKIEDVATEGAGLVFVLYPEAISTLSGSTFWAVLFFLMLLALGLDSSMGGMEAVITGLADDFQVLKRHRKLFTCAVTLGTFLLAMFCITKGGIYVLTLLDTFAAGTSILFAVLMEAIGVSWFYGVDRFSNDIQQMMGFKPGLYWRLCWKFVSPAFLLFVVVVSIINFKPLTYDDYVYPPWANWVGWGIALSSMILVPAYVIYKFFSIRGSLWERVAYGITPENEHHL

Row | IC50 [nM] | SMILES
1 | 0.1 to 200 | CN[C@@H]1C[C@@H](c2c[nH]c3ccccc23)c2ccccc21 [Formula IX]
2 | 0.1 to 200 | CN[C@@H]1C[C@@H](c2c[nH]c3ccc(Cl)cc23)c2ccccc21 [Formula VIII]
3 | 0.1 to 200 | CN[C@@H]1C[C@@H](c2c[nH]c3cc(OC)ccc23)c2ccccc21 [Formula X]

Reference: patent US7618967B2, “Indane compounds” (H. Lundbeck A/S, priority 2006, dated 2009)
